Reference: patent publication US8841311B2, “Sulphone-substituted quinazoline derivatives as immuno-modulators, their preparation and use as medicaments” (Bayer Intellectual Property GmbH, priority 2008, dated 2014)

Tested on: TLR-induced TNF-α release in human peripheral blood mononuclear cells (PBMC)
Test: TLR-induced cytokine release in human PBMC (TNF-alpha, ELISA)
Format: cell-based
Details: human PBMC stimulated with TLR ligand, 18 hours incubation
Description: TLR-Induced Cytokine Release in Human “Peripheral Blood Mononuclear Cells” (PBMC)
PBMCs isolated from human whole blood are stimulated using a TLR ligand.
The cytokine determination is carried out by means of ELISA kits; a proliferation/cell metabolism determination is carried out using Alamar Blue.
For the cell preparation, about 200 ml of blood are treated with an anticoagulant (e.g. citrate Monovettes). Per Leucosep tube, 15 ml of Histopaque (room temperature, RT) are poured in and pressed downwards through the frit employed by brief initial centrifugation (one minute at 1000×g, RT). 20 ml of blood are added to the tubes prepared in this way and centrifuged at 800×g for 15 minutes (RT). After centrifugation, the following layered arrangement results from the top to the bottom: plasma—PBMC Histopaque—filter disc—Histopaque—erythrocytes and granulocytes. The supernatant plasma is aspirated. The PBMC are transferred together with the underlying Histopaque to a new 50 ml tube, the contents of two Leucosep tubes always being added to one 50 ml tube. The 50 ml tubes are then filled to 50 ml with PBS. This cell suspension is centrifuged at 300×g (RT) for 10 minutes. The liquid supernatant is tipped off and the cell pellet is resuspended with a little PBS and subsequently filled to 50 ml with PBS. […] The metabolic activity of the treated cells is determined with the aid of Alamar Blue.

COc1cc2c(NC(C)C)ncnc2cc1OCc1cccc(S(C)(=O)=O)c1 [Example 2.1, Isopropyl[7-(3-methanesulphonylbenzyloxy)-6-methoxyquinazolin-4-yl]amine]
IC50: 3 µM
